Reference: publication PMC9925730, “Controlled sequential in situ self-assembly and disassembly of a fluorogenic cisplatin prodrug for cancer theranostics” (Nature Communications, 2023)
Several values for one entry are separate records, joined by “and”; a condition that tells them apart may be missing. Equal values may be shown once.

Key:
ALP = biological target: T1, ALP (Bos taurus, UniProt P19111); test: ALP-triggered dephosphorylation and in situ self-assembly in solution (HPLC, DLS, TEM); format: biochemical; set-up: amount of compound in the P-CyPt solution (HPLC, Fig. 2h) / mean size by TEM (Fig. 2i) / mean size by DLS (Fig. 2i): unit not given here; conditions: P-CyPt 10 μM, ALP 100 U/L 37 °C
T1 construct: Alkaline phosphatase from bovine; purchased Sigma-Aldrich; host or cells: bovine intestinal mucosa (tissue-derived)
T1 sequence (P19111 20-506 limits assumed): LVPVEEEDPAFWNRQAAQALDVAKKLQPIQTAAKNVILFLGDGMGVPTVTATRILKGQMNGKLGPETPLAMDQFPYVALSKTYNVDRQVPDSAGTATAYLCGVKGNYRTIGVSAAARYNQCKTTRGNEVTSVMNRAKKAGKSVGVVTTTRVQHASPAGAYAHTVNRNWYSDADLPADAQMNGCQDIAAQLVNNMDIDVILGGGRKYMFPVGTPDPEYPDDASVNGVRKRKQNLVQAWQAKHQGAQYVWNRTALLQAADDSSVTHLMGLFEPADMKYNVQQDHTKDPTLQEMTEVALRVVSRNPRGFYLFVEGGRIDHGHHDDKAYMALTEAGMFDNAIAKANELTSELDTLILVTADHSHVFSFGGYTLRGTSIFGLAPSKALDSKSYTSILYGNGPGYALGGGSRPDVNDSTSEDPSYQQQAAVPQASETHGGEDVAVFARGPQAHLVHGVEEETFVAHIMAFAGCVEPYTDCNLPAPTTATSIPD
Experimental: To evaluate the ALP-triggered dephosphorylation and in situ self-assembly process, a solution of P-CyPt (10 μM) in Tris buffer (1 mL) was incubated with ALP (100 U/L) at 37 °C. HPLC, DLS, and TEM analyses were performed at 0, 5, 10, 15, 20, and 30 min. To evaluate the GSH-triggered reduction and disassembly process, P-CyPt (10 μM) in Tris buffer (1 mL) was first incubated with ALP (100 U/L) at 37 °C for 30 min to allow the formation of Pt^IVNPs. The solution was then treated with 10 mM GSH at 37 °C, which was monitored by HPLC, DLS, and TEM at 10, 20, 30, 40, 50, and 60 min.

[1] = Urine and faeces analysis by HPLC (mCy-containing compounds); format: in vivo, mice
[2] = Time period 0-2 h, individual mice, matrix and injected agent not given
[3] = Time period 0-2 h, mean of 3 mice, matrix and injected agent not given
[4] = Time period 2-4 h, individual mice
[5] = Time period 2-4 h, mean of 3 mice
[6] = Time period 4-8 h, individual mice
[7] = Time period 4-8 h, mean of 3 mice
[8] = Time period 8-12 h, mean of 3 mice
[9] = after i.v. preformed PtIVNPs, 2-4 h
[10] = after i.v. preformed PtIVNPs, 4-8 h
[11] = after i.v. preformed PtIVNPs, 8-12 h

SMILES: CC1(C)C(/C=C/C2=C3Oc4cc(O)c(Cl)cc4C=C3CCC2)=[N+](CCCNC(=O)[C@@H](Cc2ccccc2)NC(=O)[C@@H](Cc2ccccc2)NC(=O)CCC(=O)[O][Pt]([NH2])([NH2])([OH])([Cl])[Cl])c2ccccc21 [CyPt]
- amount of compound in the P-CyPt solution (HPLC, Fig. 2h) (ALP; 0 min): 0.00
- amount of compound in the P-CyPt solution (HPLC, Fig. 2h) (ALP; 5 min): 28.25
- amount of compound in the P-CyPt solution (HPLC, Fig. 2h) (ALP; 10 min): 54.36
- amount of compound in the P-CyPt solution (HPLC, Fig. 2h) (ALP; 15 min): 71.75
- amount of compound in the P-CyPt solution (HPLC, Fig. 2h) (ALP; 20 min): 94.94
- amount of compound in the P-CyPt solution (HPLC, Fig. 2h) (ALP; 30 min): 100.00
- Compound found in excreta (%), Supplementary Table S5 [1, 2]: 1.0169% and 1.15% and 0.9269%
- Compound found in excreta (%), Supplementary Table S6 [1, 2]: 0.0316% and 0.04969% and 0.02632%
- Compound found in excreta (%), Supplementary Table S7 [1, 2]: 0%
- Compound found in excreta (%), Supplementary Table S8 [1, 2]: 0.5086% and 0.616% and 0.02021%
- Compound found in excreta (%), Supplementary Table S5 [1, 3]: 1.03%
- Compound found in excreta (%), Supplementary Table S6 [1, 3]: 0.0359%
- Compound found in excreta (%), Supplementary Table S7 [1, 3]: 0.00%
- Compound found in excreta (%), Supplementary Table S8 [1, 3]: 0.38%
- Compound found in excreta (%), Supplementary Table S5 [1, 4]: 0.5615% and 0.6076% and 0.4976%
- Compound found in excreta (%), Supplementary Table S6 [1, 4]: 0.965% and 1.15% and 0.7153%
- Compound found in excreta (%), Supplementary Table S7 [1, 4]: 2.308% and 2.538% and 1.332%
- Compound found in excreta (%), Supplementary Table S8 [1, 4]: 12.9072% and 11.8054% and 9.624%
- Compound found in excreta (%), Supplementary Table S5 [1, 5]: 0.56%
- Compound found in excreta (%), Supplementary Table S6 [1, 5]: 0.94%
- Compound found in excreta (%), Supplementary Table S7 [1, 5]: 2.06%
- Compound found in excreta (%), Supplementary Table S8 [1, 5]: 11.45%
- Compound found in excreta (%), Supplementary Table S5 [1, 6]: 0.2738% and 0.2968% and 0.2509%
- Compound found in excreta (%), Supplementary Table S6 [1, 6]: 10.4273% and 10.6083% and 7.985%
- Compound found in excreta (%), Supplementary Table S7 [1, 6]: 3.373% and 3.391% and 1.995%
- Compound found in excreta (%), Supplementary Table S8 [1, 6]: 11.1798% and 12.4002% and 9.36%
- Compound found in excreta (%), Supplementary Table S5 [1, 7]: 0.27%
- Compound found in excreta (%), Supplementary Table S6 [1, 7]: 9.67%
- Compound found in excreta (%), Supplementary Table S7 [1, 7]: 2.92%
- Compound found in excreta (%), Supplementary Table S8 [1, 7]: 10.98%
- Compound found in excreta (%), Supplementary Table S8 ([1]; Time period 8-12 h, individual mice): 1.288% and 2.706% and 1.988%
- Compound found in excreta (%), Supplementary Table S5 [1, 8]: 0.00%
- Compound found in excreta (%), Supplementary Table S6 [1, 8]: 0.76%
- Compound found in excreta (%), Supplementary Table S7 [1, 8]: 1.17%
- Compound found in excreta (%), Supplementary Table S8 [1, 8]: 1.99%
- percentage excreted to the faeces (HPLC) ([1]; after i.v. P-CyPt, 2-4 h): 0.94 ± 0.22%
- percentage excreted to the urine (HPLC) ([1]; after i.v. P-CyPt, 2-4 h): 0.56 ± 0.055%
- percentage excreted to the faeces (HPLC) ([1]; after i.v. P-CyPt, 4-8 h): 9.67 ± 1.46% and ~ 9.7%
- percentage excreted to the urine (HPLC) ([1]; after i.v. P-CyPt, 4-8 h): 0.27 ± 0.23%
- percentage excreted to the faeces (HPLC) ([1]; after i.v. P-CyPt, 8-12 h): 0.76 ± 0.14%
- percentage excreted to the urine (HPLC) ([1]; after i.v. P-CyPt, 8-12 h): 0%
- percentage excreted to the faeces (HPLC) [1, 9]: 11.44 ± 1.67%
- percentage excreted to the urine (HPLC) [1, 9]: 2.06 ± 0.64%
- percentage excreted to the faeces (HPLC) [1, 10]: 10.98 ± 1.53%
- percentage excreted to the urine (HPLC) [1, 10]: 2.92 ± 0.80%
- percentage excreted to the faeces (HPLC) [1, 11]: 1.99 ± 0.71%
- percentage excreted to the urine (HPLC) [1, 11]: 1.16 ± 0.43%
